Tests used:
THP-1 cells [1] = experiment: RT-qPCR of cytokine mRNA levels in THP-1 cells; format: cell-based; details: 4 h
Method: Real-time quantitative PCR (RT-qPCR). The mRNA expression levels of diverse cytokines were measured using quantitative RT-PCR (RT-qPCR) assays. THP-1 cells or CT26 cells were incubated with the compounds for 4 h, subsequently harvested for RNA isolation according to the manufacturer’s instructions of RNApure Tissue&Cell Kit (DNase I) (CWBIO, Cambridge, MA, USA catalogue no. CW0560S). Next, 1 μg RNA was reversely transcribed to cDNA by TransScript All-in-One First-Strand cDNA Synthesis SuperMix for qPCR (One-Step gDNA Removal) (TransGen, Beijing, China). To examine the mRNA levels, real-time PCR was performed in a CFX96 Real-Time PCR system (Bio-RAD, Hercules, CA, USA) using PerfectStart Green qPCR Super Mix (TransGen) and primers (Sangon Biotech, Shanghai, China). The expression level was calculated according to the formula (2^−∆∆Ct) using the GAPDH or β-actin as the internal reference gene and the relative gene expression fold was normalized to the DMSO-treated cells. The THP-1 and CT26 cell lines were obtained from American Type Culture Collection (ATCC, Manassas, VA, USA).
Figure 7 Prodrug 9 improved the production of the type I interferons and proinflammatory cytokines in THP-1 cells. The mRNA expression levels of IFN-β (a), CXCL10 (b), IL-6 (c), and TNF-α (d) were assessed via real-time quantitative PCR (qPCR) under the treatment of prodrug 9 (10 μM), 3′,3′-c-di-dAMP (100 μM), 2′,3′-cGAMP (100 μM), and ADU-S100 (10 μM) for 4 h.

THP-1 cells [2] = experiment: CCK8 cell viability, THP-1 cells; format: cell-based; details: 10 μM, 24 h
Method: (§1) Cell viability of THP-1 and HEK293T cells. A total of 5 × 10^3 HEK293T cells or THP-1 cells were seeded in 96-well plates. […] Cell counting kit-8 (CCK8) (US EVERBRIGHT, Newport Beach, CA, USA, c6005) was then used to quantitatively assess the cell viability through the OD value at 450 nm. The HEK293T cell line was obtained from American Type Culture Collection (ATCC).
(§2) Figure 8 Cell viability of THP-1 and HEK293T cells stimulated by prodrug 9 and 2′,3′-cGAMP. (a) A total of 5 × 10^3 THP-1 cells or (b) HEK293T cells were seeded in 96-well plates. Cells were stimulated with prodrug 9 (10 μM), 3′,3′-c-di-dAMP (100 μM), and 2′,3′-cGAMP (100 μM) for 24 h. Then, cell counting kit-8 (CCK8) (US EVERBRIGHT, c6005) was used to quantitatively assess cell viability through the OD value at 450 nm. Data are presented as mean ± SD, n = 3.

HEK293T cells = experiment: CCK8 cell viability, HEK293T cells; format: cell-based; details: 10 μM, 24 h
Method: as §1, §2

THP-1 cells [3] = experiment: Western blot of STING/TBK1/IRF3 phosphorylation in THP-1 cells; format: cell-based; details: 4 h
Method: Western blotting. THP-1 cells (8 × 10^5 cells/well) were seeded into a 6-well plate and treated with prodrug 9, 2′,3′-cGAMP, 3′,3′-c-di-dAMP, and ADU-S100 for 4 h. The total proteins from the cells were extracted via cold RIPA buffer supplemented with protease inhibitors. Cell lysates were harvested via 1 × SDS-PAGE sample loading buffer (Cat. code: P0015, Beyotime, Shanghai, China), boiled at 100 °C for 10 min. Cell lysates were run on 10% SDS-PAGE gels and transferred onto NC membranes. The membranes were blocked with 5% BSA for 1 h and incubated with primary antibodies against STING, phospho-STING (Ser366), TBK1, phospho-TBK1 (Ser172), IRF3, phospho-IRF3 (Ser386), or β-actin overnight at 4 °C. Horseradish peroxidase-conjugated secondary antibodies were used as secondary antibodies. Finally, the membrane was detected using enhanced chemiluminescence for imaging.
Figure 9 Prodrug 9 activated the STING signalling pathway through stimulating the phosphorylation of STING, TBK1, and IRF3. Prodrug 9 (10 μM), 2′,3′-cGAMP (100 μM), 3′,3′-c-di-dAMP (100 μM), and ADU-S100 (10 μM) were used to treat THP-1 cells for 4 h, and the levels of total STING, phospho-STING, total TBK1, phospho-TBK1, total IRF3, phospho-IRF3, and β-actin were detected via Western blotting. The raw images of western blots were also placed in pages S16–S22 in Supplementary Materials.
Figure S4. Relative quantification of phospho-STING, phospho-TBK1, phospho-IRF3. Prodrug 9 (10
μM), 2′,3′-cGAMP (100 μM), 3′,3′-c-di-dAMP (100 μM) and ADU-S100 (10 μM) were used to treat
THP-1 cells for 4 h, and the levels of total STING, phospho-STING, total TBK1, phospho-TBK1, total
IRF3, phospho-IRF3, and β-actin were assessed by western blotting. […]

THP-1 cells [4] = details: human, 10 μM
Method: Uptake of DTE-dCDN Prodrug. THP-1 cells were seeded at a concentration of 5 × 10^6 cells/mL into a 12-well plate. After 16 h of incubation at 37 °C in a 5% CO2 atmosphere, the compounds were added to cell cultures and the cells were collected at time points of 1 h, 2 h, 4 h, 6 h, 8 h, 12 h, and 24 h by centrifugation for 1 min at 1000× g. The media was removed completely, and the cells were washed twice with 800 μL of ice-cold PBS before being lysed with 400 μL ice-cold 70% methanol. Lysates were incubated overnight at −20 °C and then centrifuged for 20 min at 13,000× g to remove cellular debris. The supernatant was analyzed via LC/MS/MS (Agilent 1290 Infinity II/6470A)
(a) The intracellular concentration of the prodrug 9 in THP-1 cells. (b) The intracellular concentration of the parent dCDN (3′,3′-c-di-dAMP) in THP-1 cells. THP-1 cells were treated with 10 μM prodrug 9 or 100 μM parent dCDN (3′,3′-c-di-dAMP) for the indicated period of time (1, 2, 4, 6, 8, 12, 24 h), and the intracellular concentration of the metabolites in cellular extracts was determined with liquid chromatograph MS/MS analysis.

[5] = THP-1, prodrug 9 10 μM vs 2′,3′-cGAMP 100 μM
[6] = THP-1, prodrug 9 10 μM vs 3′,3′-c-di-dAMP 100 μM
[7] = THP-1, prodrug 9 10 μM vs ADU-S100 10 μM

SMILES: Nc1ncnc2c1ncn2C1CC2OP(=O)(OCCSSc3ccccn3)OCC3OC(n4cnc5c(N)ncnc54)CC3OP(=O)(OCCSSc3ccccn3)OCC2O1 (stereo not drawn) [prodrug 9]
- CXCL10 mRNA expression, fold compared to 2′,3′-cGAMP (THP-1 cells [1]; [5]): ~17 fold
- IFN-β mRNA expression, fold compared to 2′,3′-cGAMP (THP-1 cells [1]; [5]): approximately 40 fold
- IL-6 mRNA expression, fold compared to 2′,3′-cGAMP (THP-1 cells [1]; [5]): ~1.2 fold
- TNF-α mRNA expression, fold compared to 2′,3′-cGAMP (THP-1 cells [1]; [5]): ~46 fold
- CXCL10 mRNA expression, fold compared to 3′,3′-c-di-dAMP (THP-1 cells [1]; [6]): ~26 fold
- IFN-β mRNA expression, fold compared to 3′,3′-c-di-dAMP (THP-1 cells [1]; [6]): approximately 43 fold
- IL-6 mRNA expression, fold compared to 3′,3′-c-di-dAMP (THP-1 cells [1]; [6]): ~1.4 fold
- TNF-α mRNA expression, fold compared to 3′,3′-c-di-dAMP (THP-1 cells [1]; [6]): ~12 fold
- CXCL10 mRNA expression, fold higher than ADU-S100 (THP-1 cells [1]; [7]): 14 fold
- IFN-β mRNA expression, fold higher than ADU-S100 (THP-1 cells [1]; [7]): 14 fold
- IL-6 mRNA expression, fold higher than ADU-S100 (THP-1 cells [1]; [7]): 1.9 fold
- TNF-α mRNA expression, fold higher than ADU-S100 (THP-1 cells [1]; [7]): 15 fold
- cell viability (CCK8), THP-1 cells (THP-1 cells [2]): no significant influence on the growth
- cell viability (CCK8), HEK293T cells (HEK293T cells): no significant influence on the growth
- relative expression of phospho-IRF3, fold compared to 2′,3′-cGAMP (THP-1 cells [3]; [5]): 19.8 fold
- relative expression of phospho-STING, fold compared to 2′,3′-cGAMP (THP-1 cells [3]; [5]): 20.8 fold
- relative expression of phospho-TBK1, fold compared to 2′,3′-cGAMP (THP-1 cells [3]; [5]): 6.9 fold
- relative expression of phospho-IRF3, fold compared to 3′,3′-c-di-dAMP (THP-1 cells [3]; [6]): 6.5 fold
- relative expression of phospho-STING, fold compared to 3′,3′-c-di-dAMP (THP-1 cells [3]; [6]): 5.5 fold
- relative expression of phospho-TBK1, fold compared to 3′,3′-c-di-dAMP (THP-1 cells [3]; [6]): 3.6 fold
- relative expression of phospho-IRF3, fold compared to ADU-S100 (THP-1 cells [3]; [7]): 1.8 fold
- relative expression of phospho-STING, fold compared to ADU-S100 (THP-1 cells [3]; [7]): 1.6 fold
- relative expression of phospho-TBK1, fold compared to ADU-S100 (THP-1 cells [3]; [7]): 1.3 fold
- time at which intracellular levels of prodrug 9 peaked (THP-1 cells [4]): 2 h

From article PMC10778758, “Dithioethanol (DTE)-Conjugated Deoxyribose Cyclic Dinucleotide Prodrugs (DTE-dCDNs) as STING Agonist” (International Journal of Molecular Sciences, 2023)
